# Measurements as given in article PMC9946934, “Reconstitution of human pyroptotic cell death in Saccharomyces cerevisiae” (Scientific Reports, 2023).
# Legend:
# Type in all cases: cell-based, Saccharomyces cerevisiae
# [1] = target: T1, caspase-3 (Homo sapiens, UniProt P42574); experiment: growth rescue of S. cerevisiae expressing active human caspase-3
# T1 construct: gene CASP3; active caspase-3 fused to β-galactosidase (caspase-3–LacZ)
# T1 sequence (P42574 29-175): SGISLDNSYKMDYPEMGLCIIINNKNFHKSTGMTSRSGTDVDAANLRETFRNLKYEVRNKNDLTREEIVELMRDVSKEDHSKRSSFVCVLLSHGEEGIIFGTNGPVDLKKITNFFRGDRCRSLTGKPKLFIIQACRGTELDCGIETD
# T1 sequence (P42574 176-277): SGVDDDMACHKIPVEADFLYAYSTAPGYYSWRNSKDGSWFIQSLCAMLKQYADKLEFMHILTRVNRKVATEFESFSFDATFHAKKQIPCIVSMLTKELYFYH
# [2] = target: T2, caspase-1 (Homo sapiens, UniProt P29466); experiment: growth rescue of S. cerevisiae expressing human caspase-1
# T2 construct: gene CASP1
# T2 sequence (P29466 1-404): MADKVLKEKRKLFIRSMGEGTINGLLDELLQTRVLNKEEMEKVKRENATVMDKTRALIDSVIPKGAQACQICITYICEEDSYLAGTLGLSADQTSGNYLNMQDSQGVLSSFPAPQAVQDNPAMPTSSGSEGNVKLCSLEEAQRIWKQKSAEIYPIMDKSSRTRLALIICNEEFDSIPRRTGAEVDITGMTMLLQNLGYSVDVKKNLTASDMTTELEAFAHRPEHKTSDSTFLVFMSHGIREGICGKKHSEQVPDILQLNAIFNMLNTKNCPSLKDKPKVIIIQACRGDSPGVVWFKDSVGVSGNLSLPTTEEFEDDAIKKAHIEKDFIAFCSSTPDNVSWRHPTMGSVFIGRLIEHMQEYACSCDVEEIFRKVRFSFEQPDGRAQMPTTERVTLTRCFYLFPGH
# [3] = target: T3, caspase-8 (Homo sapiens, UniProt Q14790); experiment: growth rescue of S. cerevisiae expressing human caspase-8
# T3 construct: gene CASP8
# Description: growth rescue of S. cerevisiae expressing human caspase-8 on caspase-8 | higher concentrations of QVD were needed to restore the growth rate of yeast expressing caspase-8
# T3 sequence (Q14790 whole entry): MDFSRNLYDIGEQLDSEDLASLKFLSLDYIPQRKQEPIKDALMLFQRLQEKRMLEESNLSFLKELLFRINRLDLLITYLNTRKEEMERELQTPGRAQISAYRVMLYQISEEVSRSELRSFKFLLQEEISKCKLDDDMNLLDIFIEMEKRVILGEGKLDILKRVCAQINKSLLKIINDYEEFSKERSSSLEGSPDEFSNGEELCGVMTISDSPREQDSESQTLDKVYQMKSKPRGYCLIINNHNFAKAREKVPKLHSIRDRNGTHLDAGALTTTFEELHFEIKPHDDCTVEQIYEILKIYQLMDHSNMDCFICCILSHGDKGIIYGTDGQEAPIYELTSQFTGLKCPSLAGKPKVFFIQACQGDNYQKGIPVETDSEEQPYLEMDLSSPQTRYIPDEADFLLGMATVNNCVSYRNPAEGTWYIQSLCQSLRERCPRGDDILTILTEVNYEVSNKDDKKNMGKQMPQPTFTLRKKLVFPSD
compound,measurement,setting,value
"CC(C)[C@H](NC(=O)c1ccc2ccccc2n1)C(=O)N[C@@H](CC(=O)O)C(=O)COc1c(F)cccc1F [QVD, Q-VD-OPh]",IC50,[1],1.7 µM
same,IC50,[2],21.4 µM
same,IC50,[3],30 µM
